The values below come from ChEMBL document CHEMBL1201862, “PubChem BioAssay data set” (2004).

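How tested: cells in 96-well plates exposed to compound for 48 hours at five concentrations. GI50 marks 50% less growth.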 Calls of active or inactive are those of the source. No stated cut-off is given here; in the data, active = GI50 up to about 1.1 µM and inactive = higher. Where only a bound is given, the exact number is not on record here.

Among the test systems are ACHN; BT-549; HCT-15; HL-60; K562; MDA-MB-435; MDA-N; NCI/ADR-RES; OVCAR-5; SF-268; SF-295; SF-539; SK-OV-3; U-251; 786-0; DU-145; Hs-578T; IGROV-1; T47D.
Test in all cases: NCI anticancer screen, dose series, 48 h

Consider `CN(C)CCCn1c(-c2ccc(Br)cc2)cs/c1=N\c1ccccc1`, for which the GI50 is 16.8 µM (inactive) with ACHN; 15.4 µM (inactive) with BT-549; 21.1 µM in the assay with HCT-15; 1.4 µM (inactive) with HL-60; 11.6 µM (inactive) in the assay on K562; 18.7 µM (inactive) in the assay with MDA-MB-435. Moreover, the GI50 in the assay on MDA-N was 13.8 µM (inactive); with NCI/ADR-RES, 14.3 µM (inactive); with OVCAR-5 it was 16.5 µM (inactive); with SF-268, 17.1 µM (inactive); with SF-295, 11.2 µM (inactive); in the assay with SF-539, 14 µM (inactive). The GI50 was 18.3 µM (inactive) with SK-OV-3 and 49.2 µM (inactive) with U-251.

Turning to `O=C1OCC=C1COC1OC(CO)C(O)C(O)C1O` (configuration not stated), the GI50 was > 100 µM (inactive) with 786-0; > 100 µM (inactive) in the assay on ACHN; > 100 µM (inactive) with DU-145; over 100 µM with HCT-15; 73.6 µM (inactive) with HL-60; > 100 µM (inactive) with Hs-578T. In addition, the GI50 with IGROV-1, in the assay on K562, with MDA-MB-435, in the assay on MDA-N, in the assay on NCI/ADR-RES and in the assay with OVCAR-5 was > 100 µM (inactive) throughout. Further, the GI50 with SF-268, in the assay on SF-295, in the assay with SF-539, in the assay on SK-OV-3, in the assay on T47D and in the assay on U-251 was > 100 µM (inactive) in each case.

Consider `CCOC(O)C(F)(F)F` (configuration not stated), for which the GI50 in the assay with ACHN is > 100 µM (inactive); in the assay on DU-145, > 100 µM (inactive); in the assay with HCT-15, over 100 µM; in the assay on HL-60, > 100 µM (inactive); in the assay with Hs-578T, > 100 µM (inactive); in the assay with K562, > 100 µM (inactive). For the same compound, the GI50 in the assay with MDA-MB-435, with MDA-N, in the assay on NCI/ADR-RES, with SF-268, in the assay on SF-295 and with SK-OV-3 was > 100 µM (inactive) each time. The GI50 in the assay on T47D and in the assay with U-251 was > 100 µM (inactive) each time.

Take `CCOC(=O)c1csc(NC(=O)CN2CCCC2)n1`: the GI50 with ACHN was > 100 µM (inactive); in the assay on DU-145, > 100 µM (inactive); in the assay with HCT-15, over 100 µM; in the assay with HL-60, > 100 µM (inactive); in the assay with Hs-578T, > 100 µM (inactive); in the assay with IGROV-1, > 100 µM (inactive). Besides, the GI50 in the assay on K562, in the assay with MDA-MB-435, with MDA-N, in the assay with NCI/ADR-RES, with OVCAR-5 and in the assay with SF-268 was > 100 µM (inactive) in each case. Besides, the GI50 in the assay on SF-295, in the assay on SF-539, in the assay on SK-OV-3, in the assay on T47D and in the assay with U-251 was > 100 µM (inactive) in each case.

Take `O=C1c2cc3c(cc2CC12Cc1ccc4c(c1C2=O)CCC4)CCCC3` (configuration not stated): the GI50 is > 100 µM (inactive) in the assay on 786-0; > 100 µM (inactive) in the assay on ACHN; > 100 µM (inactive) with DU-145; over 100 µM in the assay on HCT-15; > 100 µM (inactive) in the assay on HL-60; > 100 µM (inactive) with Hs-578T. Besides, the GI50 in the assay on IGROV-1 was > 100 µM (inactive); in the assay with K562, > 100 µM (inactive); in the assay on MDA-MB-435 it was 76.4 µM (inactive); in the assay on MDA-N it was > 100 µM (inactive); in the assay with NCI/ADR-RES it was > 100 µM (inactive); with OVCAR-5, > 100 µM (inactive). In addition, the GI50 with SF-268, with SF-295, in the assay on SF-539, in the assay on SK-OV-3, in the assay with T47D and in the assay on U-251 was > 100 µM (inactive) each time.

Turning to `COC12OC3(C4OC41)C(C(=O)O[C@H]3CO[Si](C)(C)C(C)(C)C)C2C(=O)Oc1ccccc1` (some centres not stated), the GI50 in the assay with 786-0 is > 100 µM (inactive); with ACHN, > 100 µM (inactive); in the assay on BT-549, 0.991 µM (active); in the assay with DU-145 it was > 100 µM (inactive); in the assay on HCT-15 it was over 100 µM; with Hs-578T, > 100 µM (inactive). Further, the GI50 with IGROV-1, in the assay with K562, with MDA-MB-435, in the assay on MDA-N, with NCI/ADR-RES and in the assay with OVCAR-5 was > 100 µM (inactive) each time. In addition, the GI50 in the assay with SF-268, with SF-295, with SK-OV-3, with T47D and with U-251 was > 100 µM (inactive) throughout.

As to `CCOC(=O)c1csc(NC(=O)CCN2CCN(C)CC2)n1`, the GI50 was > 100 µM (inactive) in the assay with ACHN; > 100 µM (inactive) in the assay on DU-145; over 100 µM in the assay with HCT-15; 75.5 µM (inactive) in the assay on HL-60; 64.6 µM (inactive) in the assay with Hs-578T; 69.8 µM (inactive) in the assay on K562. Also, the GI50 with MDA-MB-435, in the assay on MDA-N, in the assay on NCI/ADR-RES, with OVCAR-5, with SF-295 and in the assay with SF-539 was > 100 µM (inactive) throughout. The GI50 in the assay with SK-OV-3, in the assay with T47D and with U-251 was > 100 µM (inactive) each time.

For `N#C[C@H](c1ccccn1)c1nc2ccccc2nc1Cl`, the GI50 is > 100 µM (inactive) in the assay with 786-0; > 100 µM (inactive) with ACHN; > 100 µM (inactive) in the assay with BT-549; over 100 µM in the assay with HCT-15; 74.6 µM (inactive) in the assay with HL-60; > 100 µM (inactive) in the assay on Hs-578T. Besides, the GI50 with IGROV-1, in the assay on MDA-MB-435, with MDA-N, with NCI/ADR-RES, in the assay with OVCAR-5 and in the assay on SF-295 was > 100 µM (inactive) in each case. The GI50 in the assay with SF-539, in the assay with SK-OV-3, with T47D and in the assay on U-251 was > 100 µM (inactive) throughout.

Regarding `C[N+]1(C)CN(c2ccccc2)C2(CCN(CCCC(=O)c3cccs3)CC2)C1=O`, the GI50 with 786-0 was > 100 µM (inactive); in the assay with ACHN, > 100 µM (inactive); with DU-145 it was > 100 µM (inactive); in the assay with HCT-15, 56.4 µM; with HL-60, > 100 µM (inactive); in the assay on Hs-578T, 53.7 µM (inactive). The GI50 with IGROV-1 was 68.1 µM (inactive); in the assay with K562, 76 µM (inactive); with MDA-MB-435 it was > 100 µM (inactive); with MDA-N, > 100 µM (inactive); in the assay with NCI/ADR-RES, > 100 µM (inactive); in the assay with OVCAR-5, 85.1 µM (inactive). The GI50 with SF-268, with SF-295, with SF-539, in the assay on SK-OV-3, in the assay with T47D and in the assay with U-251 was > 100 µM (inactive) throughout.

`O=C1CC2(CCC(O)(c3ccc4ccccc4c3)C(C(=O)c3ccc4ccccc4c3)C2)C(=O)c2ccccc2N1` (configuration not stated): the GI50 with BT-549 is > 100 µM (inactive); in the assay on DU-145, > 100 µM (inactive); with HCT-15, over 10 µM; in the assay on HL-60, > 100 µM (inactive); in the assay with Hs-578T, > 100 µM (inactive); with IGROV-1, > 100 µM (inactive). In addition, the GI50 with K562, in the assay on MDA-MB-435, in the assay on NCI/ADR-RES, with OVCAR-5, in the assay with SF-268 and in the assay on SF-295 was > 100 µM (inactive) throughout. Besides, the GI50 is > 100 µM (inactive) in the assay on SF-539, > 100 µM (inactive) in the assay on SK-OV-3, 2.13 µM (inactive) with T47D and > 100 µM (inactive) in the assay with U-251.

As for `COc1ccc(C2C3CCc4ccccc4C3=NN2S(=O)(=O)c2cccc(C(=O)O)c2OC)cc1` (configuration not stated), the GI50 was 11.2 µM (inactive) with 786-0; 7.83 µM (inactive) in the assay on ACHN; 33.3 µM (inactive) in the assay with BT-549; 27.7 µM (inactive) in the assay with DU-145; 0.24 µM in the assay on HCT-15; 7.53 µM (inactive) with HL-60. In addition, the GI50 in the assay on IGROV-1 is 1.09 µM (active); in the assay on K562, 4.06 µM (inactive); with MDA-MB-435, 1.79 µM (inactive); in the assay with MDA-N, 2.52 µM (inactive); in the assay with NCI/ADR-RES, 2.81 µM (inactive); with OVCAR-5, 92.9 µM (inactive). The GI50 is 14 µM (inactive) in the assay on SF-268; 9.23 µM (inactive) in the assay with SF-295; 6.21 µM (inactive) in the assay with SF-539; 1.8 µM (inactive) in the assay with SK-OV-3; 4.83 µM (inactive) with T47D; 7.21 µM (inactive) in the assay on U-251.

In the case of `CN(C)c1cccc2c1C(=O)C=CC21CCc2ccc(N(C)C)c3c(N(C)C)ccc1c23` (configuration not stated), the GI50 in the assay on 786-0 was 12.7 µM (inactive); in the assay on ACHN, 13.4 µM (inactive); in the assay with DU-145, 5.26 µM (inactive); in the assay on HL-60, 5.01 µM (inactive); in the assay with Hs-578T, 17.4 µM (inactive); with IGROV-1, 13.4 µM (inactive). For the same compound, the GI50 was 3.96 µM (inactive) in the assay on K562; 10.3 µM (inactive) in the assay on MDA-MB-435; 11.2 µM (inactive) with MDA-N; 56.8 µM (inactive) in the assay with NCI/ADR-RES; 19.1 µM (inactive) in the assay with OVCAR-5; 14.4 µM (inactive) with SF-268. Further, the GI50 in the assay on SF-295 was 18.8 µM (inactive); in the assay on SF-539 it was 16.3 µM (inactive); with SK-OV-3 it was 10.1 µM (inactive); in the assay with T47D, 66.4 µM (inactive).
